Measured values: the NIST ThermoML archive (doi:10.1016/j.fluid.2015.07.031)
Several values for one entry are separate records, joined by “and”; a condition that tells them apart may be missing. Equal values may be shown once.

How the values were obtained:
[1] = Closed cell (Static) method
[2] = molar heat capacity at constant pressure; conditions: 101.33 kPa, Liquid, Thin-film microcalorimeter

CC1(C)[C@H]2CC[C@]1(C)[C@H](O)C2 [(1S-endo)-1,7,7-trimethylbicyclo[2.2.1]heptan-2-ol]
[1]
Conditions | vapor or sublimation pressure
293.12 K, Crystal 2 | 0.001843 kPa
293.13 K, Crystal 2 | 0.001845 kPa and 0.001846 kPa
298.14 K, Crystal 2 | 0.003114 kPa and 0.003117 kPa
298.15 K, Crystal 2 | 0.003118 kPa
303.16 K, Crystal 2 | 0.005163 kPa and 0.005164 kPa
303.17 K, Crystal 2 | 0.005165 kPa
308.16 K, Crystal 2 | 0.008376 kPa
308.18 K, Crystal 2 | 0.008394 kPa and 0.008395 kPa
313.13 K, Crystal 2 | 0.01335 kPa
313.14 K, Crystal 2 | 0.01336 kPa and 0.01337 kPa
318.14 K, Crystal 2 | 0.02101 kPa and 0.02103 kPa
318.15 K, Crystal 2 | 0.02103 kPa
323.17 K, Crystal 2 | 0.03267 kPa
323.18 K, Crystal 2 | 0.03269 kPa
323.19 K, Crystal 2 | 0.03273 kPa
328.14 K, Crystal 2 | 0.04968 kPa and 0.04971 kPa
328.15 K, Crystal 2 | 0.04973 kPa
333.18 K, Crystal 2 | 0.07494 kPa and 0.07496 kPa and 0.07498 kPa
338.2 K, Crystal 2 | 0.1112 kPa
338.21 K, Crystal 2 | 0.1112 kPa
343.15 K, Crystal 2 | 0.1618 kPa and 0.1619 kPa
346.99 K, Crystal 2 | 0.2143 kPa
347.09 K, Crystal 2 | 0.2157 kPa
347.1 K, Crystal 2 | 0.2156 kPa
348.11 K, Crystal 1 | 0.2309 kPa and 0.2308 kPa and 0.2307 kPa
352.88 K, Crystal 1 | 0.3183 kPa
352.89 K, Crystal 1 | 0.3183 kPa and 0.3184 kPa
357.96 K, Crystal 1 | 0.4417 kPa and 0.4418 kPa
357.97 K, Crystal 1 | 0.4424 kPa
362.89 K, Crystal 1 | 0.6015 kPa
362.9 K, Crystal 1 | 0.6015 kPa
362.94 K, Crystal 1 | 0.6029 kPa

CC(C)=CCC/C(C)=C/CO [(E)-3,7-dimethyl-2,6-octadien-1-ol]
[2]
Conditions | molar heat capacity at constant pressure [J/K/mol]
260.8 K | 310.1
265 K | 313.5
270 K | 317.5
275 K | 322.2
280 K | 326.7
285 K | 331.3
290 K | 336.2
295 K | 341.3
300 K | 346.1
305 K | 350.9
310 K | 355.8
315 K | 360.7
320 K | 365.6
325 K | 370.6
330 K | 376.2
335 K | 381.1
340 K | 385.5
345 K | 389.8
350 K | 394.3
355 K | 398.6

[1], Liquid
Conditions | vapor or sublimation pressure
273.65 K | 0.000112 kPa and 0.000109 kPa and 0.000111 kPa
278.15 K | 0.00019 kPa and 0.000192 kPa and 0.000195 kPa
283.15 K | 0.000357 kPa and 0.000355 kPa and 0.000358 kPa
288.15 K | 0.000641 kPa and 0.000637 kPa and 0.000639 kPa
293.11 K | 0.001082 kPa
293.14 K | 0.001071 kPa and 0.001079 kPa
293.15 K | 0.001116 kPa and 0.001114 kPa and 0.001118 kPa
298.15 K | 0.001894 kPa [middle of 6 runs]
303.15 K | 0.003189 kPa and 0.003178 kPa and 0.00319 kPa
303.17 K | 0.003087 kPa and 0.003101 kPa
303.18 K | 0.003091 kPa
308.15 K | 0.005168 kPa and 0.00517 kPa and 0.005167 kPa
308.19 K | 0.005018 kPa and 0.005019 kPa and 0.005016 kPa
313.16 K | 0.008035 kPa and 0.008051 kPa and 0.008055 kPa
318.16 K | 0.01263 kPa and 0.01264 kPa and 0.01265 kPa
323.17 K | 0.0196 kPa and 0.01965 kPa and 0.0197 kPa
328.17 K | 0.03003 kPa and 0.0301 kPa
333.16 K | 0.04478 kPa and 0.04499 kPa and 0.04502 kPa
338.14 K | 0.06605 kPa and 0.06612 kPa and 0.06614 kPa
343.13 K | 0.09605 kPa and 0.09608 kPa and 0.0961 kPa
348.1 K | 0.1372 kPa and 0.1373 kPa
353.07 K | 0.194 kPa and 0.1941 kPa
358.04 K | 0.2693 kPa and 0.2697 kPa
362.92 K | 0.3686 kPa and 0.3687 kPa
362.94 K | 0.3684 kPa

CC(C)=CCC[C@H](C)CCO [(S)-3,7-dimethyl-6-octen-1-ol]
[2]
Conditions | molar heat capacity at constant pressure [J/K/mol]
260.2 K | 316.4
265 K | 320.7
270 K | 325.5
275 K | 330.5
280 K | 335.6
285 K | 340.9
290 K | 346.5
295 K | 352.3
300 K | 357.9
305 K | 363.6
310 K | 369.3
315 K | 375
320 K | 380.6
325 K | 386.5
330 K | 392.9
335 K | 398.8
340 K | 404
345 K | 409.2
350 K | 414.6
355 K | 420

[1], Liquid
Conditions | vapor or sublimation pressure
273.65 K | 0.000129 kPa and 0.00013 kPa and 0.000133 kPa
278.15 K | 0.000231 kPa and 0.000228 kPa and 0.000235 kPa
283.15 K | 0.00043 kPa and 0.000432 kPa
288.15 K | 0.00077 kPa and 0.000777 kPa and 0.000779 kPa
293.15 K | 0.001361 kPa and 0.001358 kPa
293.17 K | 0.001319 kPa and 0.001331 kPa and 0.001328 kPa
298.15 K | 0.00233 kPa and 0.002328 kPa and 0.002323 kPa
298.18 K | 0.002272 kPa
298.19 K | 0.00227 kPa
298.2 K | 0.002271 kPa
303.15 K | 0.003871 kPa and 0.003875 kPa and 0.003876 kPa
303.16 K | 0.003787 kPa
303.19 K | 0.003806 kPa
303.2 K | 0.003795 kPa
308.15 K | 0.006284 kPa and 0.006296 kPa and 0.006302 kPa
308.19 K | 0.006203 kPa and 0.006213 kPa
308.21 K | 0.006198 kPa
313.2 K | 0.009899 kPa
313.21 K | 0.009904 kPa and 0.009905 kPa
318.23 K | 0.01566 kPa
318.24 K | 0.01565 kPa and 0.01566 kPa
323.22 K | 0.0243 kPa
323.23 K | 0.02431 kPa
328.2 K | 0.03714 kPa
328.21 K | 0.03718 kPa and 0.03714 kPa
333.23 K | 0.05589 kPa and 0.05585 kPa and 0.05576 kPa
338.19 K | 0.08215 kPa
338.2 K | 0.08219 kPa and 0.08218 kPa
343.19 K | 0.1192 kPa and 0.1193 kPa
348.14 K | 0.1705 kPa
348.15 K | 0.1706 kPa
353.1 K | 0.2403 kPa and 0.2404 kPa
358.01 K | 0.3337 kPa
358.02 K | 0.3345 kPa and 0.3342 kPa
362.97 K | 0.4601 kPa
362.98 K | 0.4602 kPa and 0.4607 kPa
